The values that follow are results of earlier work, collected in patent US20200360268A1, “INJECTABLE PHARMACEUTICAL COMPOSITION CONTAINING MELOXICAM, AND PREPARATION METHOD THEREFOR” (Jiangsu Hengrui Medicine Co., Ltd., priority 2017, published 2020).

≈ marks a conversion by molar mass, not a printed value.

The conditions of this series: pH 1.2 and 4.0.

Usually solubility stands for the dissolved amount per volume that the medium holds. For `Cc1cnc(NC(=O)C2=C(O)c3ccccc3S(=O)(=O)N2C)s1` [Meloxicam], the solubility is 0.6 µg/mL (≈ 1.71 µM).
